“Also recorded” adds a separate entry of the source. Ends that are not written are not given here.
Columns and labels:
[1] = target: T1, OxR2 (Homo sapiens, UniProt O43614); conditions: cited from earlier work
T1 sequence (O43614 1-444): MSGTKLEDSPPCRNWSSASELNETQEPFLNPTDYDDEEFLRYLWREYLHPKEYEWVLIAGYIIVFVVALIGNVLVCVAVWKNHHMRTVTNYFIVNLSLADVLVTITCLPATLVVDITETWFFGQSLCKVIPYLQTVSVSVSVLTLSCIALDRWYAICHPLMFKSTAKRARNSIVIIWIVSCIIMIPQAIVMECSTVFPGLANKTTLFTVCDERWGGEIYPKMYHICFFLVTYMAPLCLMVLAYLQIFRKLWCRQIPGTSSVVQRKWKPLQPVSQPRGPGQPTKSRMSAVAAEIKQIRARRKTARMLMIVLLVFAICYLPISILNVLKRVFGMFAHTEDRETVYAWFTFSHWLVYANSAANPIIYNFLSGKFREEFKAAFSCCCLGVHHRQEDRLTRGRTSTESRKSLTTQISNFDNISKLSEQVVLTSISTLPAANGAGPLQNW

[2] = target: T1, OxR2; conditions: read-out: Human OxR2 FLIPR; cited from earlier work
[3] = target: T2, recombinant human OxR1 (Homo sapiens, UniProt O43613); conditions: cited from earlier work
T2 sequence (O43613 1-425): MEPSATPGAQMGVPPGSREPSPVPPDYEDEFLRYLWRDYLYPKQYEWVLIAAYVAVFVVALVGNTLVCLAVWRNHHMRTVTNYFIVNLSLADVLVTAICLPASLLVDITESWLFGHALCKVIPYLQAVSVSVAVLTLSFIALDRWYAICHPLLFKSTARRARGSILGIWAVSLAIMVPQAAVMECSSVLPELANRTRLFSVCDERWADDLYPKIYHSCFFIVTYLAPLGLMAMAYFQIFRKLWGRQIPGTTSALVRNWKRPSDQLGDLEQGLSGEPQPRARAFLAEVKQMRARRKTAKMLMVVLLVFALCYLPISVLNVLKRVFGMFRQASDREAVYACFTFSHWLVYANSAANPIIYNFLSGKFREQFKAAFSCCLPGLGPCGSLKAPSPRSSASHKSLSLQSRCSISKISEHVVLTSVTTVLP

[4] = target: T1, OxR2; conditions: cited from earlier work; remark: listed apart in the source
[5] = test system: rat ventral tegmental area dopamine neurons; conditions: cited from earlier work
[6] = target: T3, rat OxR1 (Rattus norvegicus, UniProt P56718); conditions: rat OxR1 cell cultures, t=30 min to t=4 hours; cited from earlier work
T3 sequence (P56718 1-416): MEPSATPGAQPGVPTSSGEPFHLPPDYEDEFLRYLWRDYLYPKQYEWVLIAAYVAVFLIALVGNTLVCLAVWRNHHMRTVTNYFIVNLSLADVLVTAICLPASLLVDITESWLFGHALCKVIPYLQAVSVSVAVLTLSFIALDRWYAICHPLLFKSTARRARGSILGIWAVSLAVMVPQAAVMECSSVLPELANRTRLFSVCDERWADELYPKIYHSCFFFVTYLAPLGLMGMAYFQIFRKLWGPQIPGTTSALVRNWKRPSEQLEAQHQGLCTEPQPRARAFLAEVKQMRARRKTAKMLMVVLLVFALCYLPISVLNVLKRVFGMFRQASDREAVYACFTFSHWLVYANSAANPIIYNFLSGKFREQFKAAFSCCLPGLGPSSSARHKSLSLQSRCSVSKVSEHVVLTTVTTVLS

[7] = target: T1, OxR2; conditions: over 4 hours; cited from earlier work
[8] = test system: Wistar female rats; test: Open-field test (OFT) in rats under shifted photoperiods; conditions: OFT first session; for effect on the Distance: 100 mg/kg
Description: Activity was tested in open boxes (open-fields: 100 cm wide, 100 cm long, 50 cm high) made of PVC. Animals' activity was recorded by an electronic videotracking detection system (Viewpoint, France) allowing to detect the distance travelled and the time spent in different parts of the open-field.
Light intensity was 7-10 Lux at the center of the open-fields.
Animals were individually placed for a 10-min session in the center of one quadrant of the open-field.
Parameters analyzed were: • 1) One parameter taken as an index of locomotor-exploratory behavior: • The distance travelled in the open-field. • 2) Two parameters taken as indices of anxiety behavior: • a) % Dist Cent=the percentage of distance travelled in the central 60×60 cm area of the open-field. • b) % Time cent=the percentage of time spent in the central 60×60 cm area of the open-field.
(§1) A difference was considered: • 1) Statistically significant: p≦0.05. • 2) Close-to-significant difference: 0.05<p≦0.10. • 3) Not significant: p>0.10.

[9] = test system: Wistar female rats; test: Marble burying test (MBT) in rats under shifted photoperiods
Description: The marble burying test can score the ability of rats to remove slight stressors, the marbles, from their environments.
Animals of LL-DMSO, LL-Wat, SL-DMSO, SL-Wat and SL-Almo groups were subjected to the marble burying test only once during the period of the study: at the 51st or 52nd days of treatment (see Table 2).
The experiment was conducted in twelve Plexiglas transparent open-boxes (42 cm L, 42 cm W, 40 cm H) filled with 5 cm sawdust. Twenty-five clean glass marbles (15 mm diameter) were evenly spaced 5 cm apart on sawdust. The number of marbles buried was counted at the end of the session.
Light intensity was 30 Lux at the center of the open-boxes.
Animals were individually placed for a 5-min session in the experimental apparatus.
The number of marbles was counted at the end of the session: • 1) Number of marbles not buried. • 2) Number of marbles ⅓ buried. • 3) Number of marbles ⅔ buried. • 4) Number of marbles totally buried.
Parameters analyzed were: • 1) Unburied=the number of marbles not buried. • 2) ≧⅔ buried=number of marbles ⅔ buried+number of marbles totally buried • 3) Tot buried=number of marbles totally buried.

[10] = Body weight / growth rate in rats under shifted photoperiods; conditions: for Body weight in percent of initial body weight (d−4): short light (SL) rats, mean
Description: Rats were weighed three times a week in order to examine the effect of L/D changes and the effects of treatments on the body weight.
Animals' body weight was recorded three days per week. The body weight on day d-4 was considered as the initial body weight.
Initial body weight (BW) between recorded on day d-4, before the initiation of L/D change analyzed by 1-factor ANOVA and Student's t-test.
Therefore, the following analyses were performed on the BW expressed in percentage of the initial BW. • 2) Effect of L/D condition:
The BW expressed in percentage of the initial BW was compared between by ANOVA for repeated measures (from day dl to day d54): • a) On C-Veh, LL-Veh and SL-Veh groups: overall effect. • b) On C-Veh and LL-Veh groups: effect of LL. • c) On C-Veh and SL-Veh groups: effect of SL. • d) On LL-Veh and SL-Veh groups: difference LL vs. SL. • 3) Effect of vehicle:

[11] = test system: Wistar female rats; test: Forced swimming test (FST) in rats under shifted photoperiods
Description: Animals of CL and LL groups received the vehicles in the same conditions.
The same animals were tested by the same experimenter on the two FST sessions. The same proportion of animals of each group was tested by each experimenter.
The apparatus used for the experiment consisted of glass cylinders (64 cm high, 25 cm diameter) filled with 30 cm 25° C. water. The experiment was recorded with a camcorder, placed in front of the glass cylinder and connected to a screen, allowing the experimenter to watch the test online.
Light intensity was 15-20 Lux at the level of glass cylinders.
The behavior of the rat was measured on the second trial.
Behavior was classified as one of three behaviors: • 1) Immobility, defined as floating in the water without struggling and using only small movements to keep the head above water. • 2) Swimming, defined as moving limbs in an active manner, more than required to keep the head above water and causing movement among quadrants of the cylinder. • 3) Climbing, defined as making active movements with forepaws moving in and out of the water, usually directed against the side of the cylinder. Parameters analyzed were:
1) Imo=the immobility time.
2) Swm=the swimming time.
3) Clb=the climbing time.
A depressive-like profile is indicated by an increase of the immobility time and a decrease of either the swimming time or the climbing time. Conversely, an antidepressant-like effect is indicated by a decrease of the immobility time and an increase of either the swimming time or the climbing time.
as §1

[12] = test system: Wistar female rats; test: Elevated-plus maze (EPM) test in rats under shifted photoperiods
Excerpt: Animals were subjected to the elevated-plus maze (EPM) test only once during the period of the study: at the 43th, 44th or 45th days of treatment (see Table 2).
The apparatus consisted of a plus-shaped maze, elevated 50 cm from the floor, with two opposite open arms, 50×10 cm, crossed at right angles by two arms of the same dimensions, but enclosed by 40-cm-high black opaque walls with an open roof. In addition a 1-cm-high edge made of Plexiglas surrounded the open arms to avoid falls.
Light intensity was 10 Lux at the level of open arms.
The experiment was recorded with a camcorder, placed 1.5 m above the maze and connected to a screen, allowing the experimenter to watch the test online.
Animals were individually placed for a 5-min session in the center of the plus-maze. The number of arm entries and the time spent in arms were recorded. An arm entry is defined as all four paws into the arm.
Other parameters were recorded: the time spent in open arms, the number of open arm entries, the time spent in enclosed arms, the number of enclosed arm entries and the time spent in the center of the maze.
1) Enclosed arm entries: entries into the protected arms of the EPM
as §1

[13] = test system: mice; conditions: no photoperiod manipulation; cited from earlier work
[14] = SL-Almo vs SL-Wat, 100 mg/kg PO
[15] = Short Light rats, Almorexant 100 mg/kg PO daily, group mean
[16] = MBT reanalysis, SL rats, almorexant
[17] = MBT, SL-Almo vs SL-Wat, 100 mg/kg PO
[18] = MBT, short light (SL) rats, group mean
[19] = FST second session, SL-Almo vs SL-Wat, 100 mg/kg PO, 100 mg/kg
[20] = FST second session, short light (SL) rats, group mean
[21] = EPM, SL-Almo vs SL-Wat, 100 mg/kg PO, 100 mg/kg
[22] = EPM, short light (SL) rats, group mean, water vehicle comparison groups

Compound: CNC(=O)[C@@H](c1ccccc1)N1CCc2cc(OC)c(OC)cc2[C@@H]1CCc1ccc(C(F)(F)F)cc1.Cl [Almorexant HCl]
- Ki [1]: 0.9 nM
- IC50 [2]: 15.6 nM
- binding and dissociation rates at hOxR1 [3]: fast binding and dissociation rates
- classification of antagonism at hOxR1 [3]: competitive antagonist
- Kd ([4]; [3H] Almorexant, human OxR2): 0.17 nM
- classification of antagonism at hOxR2 [4]: non-competitive antagonist
- block of the effect of orexin A on firing ([5]; 1 micro molar of Almorexant): completely block the effect of orexin A
- change of Ki over time [6]: remains relatively unchanged
- change of OxR2 Ki over time [7]: decrease over 4 hours
- effect on the % Dist Center [8, 14]: Did not significantly modify
- effect on the % Time Center [8, 14]: Did not significantly modify
- effect on the Distance ([8]; SL-Almo vs SL-Wat, 100 mg/kg PO, listed as Almorexant): Tended to reduce the decrease in mobility caused by the SL
- effect on the Distance ([8]; SL-Almo vs SL-Wat, 100 mg/kg PO, listed as almorexant): Did not significantly modify
- % Dist Cent [8, 15]: 9.9%
- % Time Cent [8, 15]: 6.7%
- Distance travelled [8, 15]: 8786.5 cm
- anxiety-like behavior ([8]; almorexant 100 mg/kg PO): did not induce effect
- motor exploratory activity ([8]; almorexant 100 mg/kg PO): did not modify
- marbles greater than ⅓ buried (FIG. 20) [9, 16]: treated with statistical significance
- marbles ⅓ buried (FIG. 22) [9, 16]: treated statistically significantly
- marbles ⅓ or less buried (FIG. 21) [9, 16]: treated with statistical significance
- unburied marbles [9, 17]: Reduced the increase
- ≧⅔ buried marbles [9, 17]: Reduced the decrease
- Number of unburied marbles [9, 18]: 5.3
- number of totally buried [9, 18]: 8.9
- number of ≧⅔ buried marbles [9, 18]: 16.3
- growth rate ([10]; SL-Almo vs SL-Veh, OG (FIG. 30)): consistently found to increase growth rate back to LL levels
- body weight (BW, percent of initial BW) ([10]; SL-Almo vs SL-Wat, d29 to d54, 100 mg/kg PO): increased the BW
- Body weight in percent of initial body weight (d−4) ([10]; d29-t1, during treatment): 164.4%
- Body weight in percent of initial body weight (d−4) ([10]; d31-t3, during treatment): 167.0%
- Body weight in percent of initial body weight (d−4) ([10]; d33-t5, during treatment): 168.8%
- Body weight in percent of initial body weight (d−4) ([10]; d36-t8, during treatment): 173.4%
- Body weight in percent of initial body weight (d−4) ([10]; d38-t10, during treatment): 175.5%
- Body weight in percent of initial body weight (d−4) ([10]; d40-t12, during treatment): 176.6%
- Body weight in percent of initial body weight (d−4) ([10]; d43-t15, during treatment): 179.7%
- Body weight in percent of initial body weight (d−4) ([10]; d45-t17, during treatment): 181.7%
- Body weight in percent of initial body weight (d−4) ([10]; d47-t19, during treatment): 183.5%
- Body weight in percent of initial body weight (d−4) ([10]; d50-t22, during treatment): 185.5%
- Body weight in percent of initial body weight (d−4) ([10]; d52-t24, during treatment): 187.5%
- Body weight in percent of initial body weight (d−4) ([10]; d54-t26, during treatment): 187.0%
- effect on the swimming time (Swm) ([11]; FST second session, SL-Almo vs SL-Wat, 100 mg/kg PO): Did not significantly modify
- effect on the climbing time (Clb) [11, 19]: increased; also recorded: Tended to increase
- effect on the immobility time (Imo) [11, 19]: Decreased
- antidepressant-like effect ([11]; FST second session, almorexant 100 mg/kg PO): induced an antidepressant-like effect
- Immobility time (Imo) [11, 20]: 111.5 s
- climbing time (Clb) [11, 20]: 68.7 s
- percentage swimming time (Swim) [11, 20]: 119.8 s
- FST 2 binned climbing time (FIG. 13) ([11]; double blind reanalysis of video, SL-Almo vs SL-Veh): statistically significant anti-depressant and anti-despair effect
- SL-increased anxiety-like behaviors (FIG. 10, enclosed arms) ([12]; EPM reanalysis, OG almorexant): treated with statistical significance
- effect on the % OAE [12, 21]: no significant effect; also recorded: Did not significantly modify
- effect on the % TOA [12, 21]: no significant effect; also recorded: Did not significantly modify
- effect on the AE [12, 21]: increased; also recorded: Tended to increase
- anxiety-like behavior ([12]; EPM, almorexant 100 mg/kg PO): did not induce effect
- motor exploratory activity ([12]; EPM, almorexant 100 mg/kg PO): increased
- Number of arm entries (AE) [12, 22]: 23.8
- Percentage of open arm entries (% OAE) [12, 22]: 38.1%
- Percentage of time spent in open arms (% TOA) [12, 22]: 34.9%

Compound: Cc1nc2ccc(NC(=O)Nc3ccnc4cccnc34)cc2o1 [SB-334867]
- immobility in Forced Swim Test and Tail Suspension Test [13]: decreased immobility

Compound: orexin A: neuropeptide of 33 amino acid residues with two disulfide bonds, derived from prepro-orexin (QPLPDCCRQKTCSCRLYELLHGAGNHAAGILTL; disulfide (positions not given here); ends not checked; also: two disulfide bonds, pairing not given here; UniProt O43612 34-66, looked up)
- basal firing frequency ([5]; 0.0001-10 micro molar orexin A, nearly half of the tested neurons): 175+/−17 % of control

Reference: patent publication US20160051533A1, “DIAGNOSIS AND PHARMACOLOGICAL TREATMENT OF SEASONAL AFFECTIVE DISORDER AND SYMPTOMS OF SEASONALITY” (Ladd Research LLC, priority 2014, published 2016)
